Results reported in patent US20240345082A1, “IDENTIFICATION AND APPLICATION OF SELECTIVE CELL SURFACE MARKERS AND ADDITIONAL METHODS FOR HUMAN RED/GREEN CONE PHOTORECEPTOR PRECURSOR ENRICHMENT” (Wisconsin Alumni Research Foundation, priority 2023, published 2024).

Legend:
CPP microaggregates [1] = assay: Ki-67 immunostaining (IHC) of MMC-treated ALCAM/CD166-sorted CPP microaggregates; settings: for Ki-67 positive cells in CPP microaggregates: 7 dpt
CPP microaggregates [2] = assay: Flow cytometric quantification of THRB2:tdTomato-positive red/green CPP cells in CPP microaggregates; format: cell-based, human; settings: CPP microaggregate formation combined with MMC treatment (250 ng/ml), 10 days post microaggregate formation; increased from 17% (unsorted CRR ROs at D60)

CO[C@@]12[C@H](COC(N)=O)C3=C(C(=O)C(C)=C(N)C3=O)N1C[C@@H]1N[C@@H]12 [MMC, mitomycin C]
Ki-67 positive cells in CPP microaggregates (CPP microaggregates [1]; 100 ng/mL MMC): few | Ki-67 positive cells in CPP microaggregates (CPP microaggregates [1]; 250 ng/mL MMC): almost nil | morphology of CPP microaggregates (CPP microaggregates [1]; 500 ng/mL MMC): noticeable disruption | Ki-67 positive cells in CPP microaggregates (CPP microaggregates [1]; 500 ng/mL MMC): almost nil | percentage of THRB2:tdTomato-positive red/green CPP cells (CPP microaggregates [2]): 89.5%
